Results on one molecule are retold here after patent publication US20260250247A1, “NOVEL INDOLINE DERIVATIVE AND USE THEREOF” (CK REGEON INC., priority 2023, published 2026).

The subject of the assay is β-catenin and CXXC5 in liver tissue. In words: Liver immunohistochemistry of β-catenin and CXXC5 in MASH mice. Format: in vivo, C57BL/6N mice. The settings on record: 25 mg/kg/day orally for 4 weeks. How it is done:
Five-week-old wild-type male C57BL/6N mice were purchased from Orient Bio Co., Ltd. They were allowed to acclimate to the laboratory environment for one week. Mice weighing 18-20 g on average were used in the experiment. To ensure ethical and scientific validity and efficient management of animal experiments, the experiment was conducted with the approval of the Institutional Review Board (IACUC-A-202205-1472-01) of Severance Hospital, Yonsei University College of Medicine.
The mice were divided into a normal group (NCD) and a high-fat diet group (HFD). The normal group (NCD) was fed a normal chow diet (NCD, Teklad Global 18% protein rodent diet), and the high-fat diet group (HFD) was fed a high-fat diet (HFD, D12492) in which fat accounted for 60% of the total calories, for 8 weeks.
Mice induced with metabolic dysfunction-associated steatohepatitis (MASH) (hereinafter, referred to as MASH or MASH group) were prepared by administering CCl4 intraperitoneally twice a week for 4 weeks after feeding the high-fat diet (HFD) for 8 weeks. […]
The sections treated with the primary antibodies were washed with PBS and incubated with biotinylated anti-mouse (1:400; Dako) or anti-rabbit (1:400; Dako) secondary antibodies for 1 hour at room temperature. […] After the staining, images were taken and analyzed using a bright-field microscope (Nikon TE-2000U).

Turning to `N#Cc1ccc2c(c1)/C(=C1/Nc3ccccc3C1=O)C(=O)N2` [5-cyanoindirubin], the “β-catenin expression in liver, immunohistochemical staining” value is listed as “no significant difference from the MASH group (vehicle)”.
